This passage reports GI50 and TGI results from PubChem BioAssay (NCI).

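Interpolation was linear, between the two tested concentrations surrounding the appropriate level; five concentrations were tested over 48 hours in 96-well plates. GI50 is the concentration that inhibits growth by half. TGI denotes the concentration required for complete inhibition of growth.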

Among the test systems are M14 melanoma; TK-10 renal; A549 NSCLC; HOP-62 NSCLC; A498 renal; HCT-116 colon; SNB-75 CNS; HCC-2998 colon; CAKI-1 renal; UACC-257 melanoma.
Assay in all cases: NCI anticancer screen, dose series, 48 h

Turning to `Nc1ccccc1NC(=O)c1ccc(CN2CCC/C(=C\c3cccc(Cl)c3)C2=O)cc1`, the GI50 is 0.0521 µM in the assay on M14 melanoma; 1.11 µM in the assay with TK-10 renal; 1.45 µM in the assay with A549 NSCLC; 0.388 µM in the assay with HOP-62 NSCLC; 0.441 µM with A498 renal; 0.0448 µM in the assay on HCT-116 colon. Moreover, the results for the GI50 with SNB-75 CNS and in the assay with HCC-2998 colon were 0.284 µM and 1.18 µM, respectively. Moreover, the TGI in the assay with M14 melanoma was 13.7 µM; in the assay on TK-10 renal, 5.88 µM; with A549 NSCLC, 75.7 µM; with HOP-62 NSCLC, more than 100 µM; with A498 renal it was 3.66 µM; in the assay with HCT-116 colon, more than 100 µM. Also, the TGI in the assay with SNB-75 CNS stood at 9.04 µM; in the assay on HCC-2998 colon, 5.7 µM.
In the case of `C=C1Oc2nc3ccccc3c(=O)n2C1(C)C`, the TGI with M14 melanoma, in the assay on TK-10 renal, in the assay with A549 NSCLC, in the assay with HOP-62 NSCLC, in the assay on A498 renal and with HCT-116 colon was more than 100 µM throughout. The TGI with CAKI-1 renal, with UACC-257 melanoma and in the assay on HCC-2998 colon was more than 100 µM in each case.
Turning to `Cc1cc(NS(=O)(=O)c2ccc(NC(=O)c3cccc4c(Nc5ccc(S(=O)(=O)Nc6cc(C)on6)cc5)c5ccccc5nc34)cc2)no1`, the TGI in the assay on M14 melanoma was more than 100 µM; in the assay with A549 NSCLC, more than 100 µM; with HOP-62 NSCLC it was more than 100 µM; with A498 renal, more than 100 µM; in the assay on SNB-75 CNS, 77.4 µM; with CAKI-1 renal, more than 100 µM. The TGI with UACC-257 melanoma is more than 100 µM.
Regarding `O=C(O)C1CCCCN1C(=O)c1ccccc1` (centres undefined), the TGI in the assay with M14 melanoma, with TK-10 renal, in the assay on A549 NSCLC, in the assay on HOP-62 NSCLC, in the assay with A498 renal and in the assay on HCT-116 colon was more than 100 µM throughout. The TGI in the assay on SNB-75 CNS, in the assay with UACC-257 melanoma and in the assay on HCC-2998 colon was more than 100 µM each time.
On to `CN1c2ccccc2S(=O)(=O)n2c(COc3ccc(Cl)cc3)nnc21`, for which the TGI is more than 100 µM in the assay with M14 melanoma; more than 100 µM in the assay with TK-10 renal; more than 100 µM with A549 NSCLC; 47.8 µM with HOP-62 NSCLC; more than 100 µM in the assay on A498 renal; more than 100 µM in the assay on HCT-116 colon. The TGI in the assay on CAKI-1 renal, in the assay on UACC-257 melanoma and in the assay on HCC-2998 colon was more than 100 µM each time.
For `NCC1OC(OC2C(CO)OC(OC3C(O)C(N)CC(N)C3OC3OC(CO)C(O)C(O)C3N)C2O)C(N)C(O)C1O` (centres undefined), the GI50 in the assay on M14 melanoma, with TK-10 renal, in the assay with A549 NSCLC, in the assay on HOP-62 NSCLC, in the assay on HCT-116 colon and with SNB-75 CNS was more than 50 µg/mL in each case. Moreover, the GI50 with CAKI-1 renal, in the assay with UACC-257 melanoma and with HCC-2998 colon was more than 50 µg/mL throughout. For the same compound, the TGI with M14 melanoma, with TK-10 renal, in the assay with A549 NSCLC, with HOP-62 NSCLC, with HCT-116 colon and in the assay with SNB-75 CNS was more than 50 µg/mL each time. Also, the TGI in the assay on CAKI-1 renal, in the assay with UACC-257 melanoma and in the assay on HCC-2998 colon was more than 50 µg/mL throughout.
Consider `CCC1CC(=O)N(SCC(N)C(=O)O)C1=O` (centres undefined), for which the TGI in the assay on M14 melanoma, in the assay with TK-10 renal, with A549 NSCLC, in the assay on HOP-62 NSCLC, in the assay on A498 renal and with HCT-116 colon was more than 100 µM each time. Moreover, the TGI in the assay with SNB-75 CNS, in the assay with CAKI-1 renal and with UACC-257 melanoma was more than 100 µM throughout.
For the compound `O=C(NNC(=O)c1ccncc1)c1ccncc1`, the TGI in the assay on M14 melanoma, in the assay on TK-10 renal, with A549 NSCLC, with HOP-62 NSCLC, in the assay with A498 renal and with HCT-116 colon was more than 100 µM throughout. For the same compound, the TGI with SNB-75 CNS, in the assay with CAKI-1 renal and with UACC-257 melanoma was more than 100 µM each time.
As for `O=C(O)C#CCO`, the TGI in the assay with M14 melanoma, in the assay on TK-10 renal, in the assay on A549 NSCLC, in the assay with HOP-62 NSCLC, in the assay on A498 renal and with HCT-116 colon was more than 100 µM each time. The TGI with SNB-75 CNS, in the assay with CAKI-1 renal and with UACC-257 melanoma was more than 100 µM each time.
Turning to `O=c1[nH]c(SCc2c(Cl)c(Cl)c(Cl)c(Cl)c2Cl)nc(=S)[nH]1`, the TGI in the assay with M14 melanoma, with TK-10 renal, with A549 NSCLC, in the assay with HOP-62 NSCLC, in the assay with A498 renal and in the assay with HCT-116 colon was more than 100 µM each time. Also, the TGI in the assay on SNB-75 CNS, with CAKI-1 renal and with UACC-257 melanoma was more than 100 µM throughout.
